One series has as its system A/WSN/33 (H1N1). The series can be described thus: Hemagglutination inhibition assay with chicken red blood cells. Conditions: Influenza A virus, Erythrocyte, in Gallus gallus, read-out: EC50, inhibition of virus-induced hemagglutination.
A further series deals with influenza virus A/WSN/33. The series can be described thus: Immunofluorescence microscopy of intra-nuclear nucleoprotein accumulation (virus entry) in MDCK cells. It counts as cell-based.
Series [1] has as its system purified influenza virus A/WSN/33. The series can be described thus: Atomic force microscopy (AFM) of virus particles. The following applies: 50 μM; for aggregation of viral particles (AFM images): 1 hour on ice; for heights of virions (AFM): versus DMSO-treated virions.
Series [2] relates to recombinant HA of A/Puerto Rico/8/1934 (H1N1), A/California/04/2009 (H1N1), A/Netherlands/219/03 (H7N7), and A/Anhui/1/2005 (H5N1). The format is biochemical, influenza A virus. Conditions: HA incubated on ice 30 min with compound; four HA subtypes.
In series [3] the test system is hemagglutinin of A/Puerto Rico/8/1934 (H1N1), A/California/04/2009 (H1N1), A/Netherlands/219/03 (H7N7), and A/Anhui/1/2005 (H5N1). The format is binding, influenza A virus. Conditions: four HA subtypes.
The target of series [4] is hemagglutinin derived from influenza A/California/04/2009(H1N1) (Influenza A virus, UniProt C3W5S1). Kind of series: Competition binding assay with sialic acid (native PAGE band gray scale). Conditions: for HA aggregation (decrease of relative density of HA monomer) / HA aggregation (decrease of relative density of HA monomer), percent: 6 μM PGG; for hemagglutinin aggregation (native PAGE lane): 600 μM SA alone (Lane 2), 6 μM PGG alone (Lane 3). The format is biochemical.
Sequence of hemagglutinin derived from influenza A/California/04/2009(H1N1) (C3W5S1 entry or part of it, added parts left off): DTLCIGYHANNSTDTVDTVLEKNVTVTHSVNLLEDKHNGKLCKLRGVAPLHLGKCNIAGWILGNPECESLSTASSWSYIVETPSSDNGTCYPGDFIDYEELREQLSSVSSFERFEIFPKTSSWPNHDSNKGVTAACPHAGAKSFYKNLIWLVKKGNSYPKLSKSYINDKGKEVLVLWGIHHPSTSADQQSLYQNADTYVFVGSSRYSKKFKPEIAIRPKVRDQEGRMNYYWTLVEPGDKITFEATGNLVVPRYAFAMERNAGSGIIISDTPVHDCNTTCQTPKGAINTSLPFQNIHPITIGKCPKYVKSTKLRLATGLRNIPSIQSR

Another series deals with influenza virus. On the set-up: method as in PMID 21479599, PMID 19575286. The following applies: ref [29], [30]; read-out: active concentration EC50 (anti-influenza virus activity); cited from earlier work.
For series [5], the system named is purified influenza virus A/WSN/33. The following applies: PGG 25 μM; TritonX-100 0.5% (v/v).
A further series has as its system MDCK cells. More on the design: method as in PMID 21479599, PMID 19575286. Conditions: ref [29], [30], read-out: cytotoxicity EC50; cited from earlier work.

As to `O=c1oc2c(O)c(O)cc3c(=O)oc4c(O)c(O)cc1c4c23` [EA, Ellagic acid], the EC50 in the series on A/WSN/33 (H1N1) was 446 nM.
For the compound `O=C(O[C@@H]1Cc2c(O)cc(O)cc2O[C@@H]1c1cc(O)c(O)c(O)c1)c1cc(O)c(O)c(O)c1` [EGCG, (−)-epigallocatechin-3-gallate], the EC50 in the series with A/WSN/33 (H1N1) was found to be 430 ± 1 nM.
As to `O=C(O)c1cc(O)c(O)c(O)c1` [GA, Gallic acid], in the series with influenza virus A/WSN/33, the “intra-nuclear accumulation of virus nucleoprotein (NP), virus entry” value (shortened to “intra-nuclear accumulation”) is on record as “viral NP was detected in the nucleus”. The “aggregation of viral particles (AFM images)” value (from here on “aggregation of viral particles”) in series [1] was “dispersive”. For the same compound, the “HA aggregation on native PAGE (HA polymer formation)” value in series [2] is “not observed”. In [3], the “interactions with HAs (SPR)” value is listed as “No significant interactions”. Moreover, the EC50 in the series with A/WSN/33 (H1N1) is above 50000 nM.
For the compound `O=C(OC[C@H]1O[C@@H](OC(=O)c2cc(O)c(O)c(O)c2)[C@H](OC(=O)c2cc(O)c(O)c(O)c2)[C@@H](OC(=O)c2cc(O)c(O)c(O)c2)[C@@H]1OC(=O)c1cc(O)c(O)c(O)c1)c1cc(O)c(O)c(O)c1` [PGG, penta-galloyl-glucose], the “HA aggregation (decrease of relative density of HA monomer)” value in series [4] (with the presence of 600 μM SA) amounted to 0.22; in series [4] (without SA), 0.33. The “HA aggregation (decrease of relative density of HA monomer), percent” value in series [4] (with the presence of 600 μM SA) is listed as 20.7%; in series [4] (without SA), 33.2%. Also, in [4], the “hemagglutinin aggregation (native PAGE lane)” value is on record as “increases hemagglutinin aggregation”. In the series on influenza virus A/WSN/33, the “intra-nuclear accumulation” value was “significantly decreased in the number of nucleoprotein-positive nucleus”. Moreover, the EC50 in the series on influenza virus is 2510 ± 310 nM; in the series on A/WSN/33 (H1N1), 5 ± 2 nM; with MDCK cells, 31500 ± 4600 nM. Besides, the “aggregation of viral particles” value in series [1] is reported as “significantly aggregated”. The “heights of virions (AFM)” value in series [1] was “significantly greater than that of DMSO-treated virions”. Also, the “membrane structures of the virus particles (TEM)” value in series [5] was “remain undisrupted”.
For the compound `CC(=O)N[C@H]1[C@H]([C@H](O)[C@H](O)CO)OC(O)(C(=O)O)C[C@@H]1O` (stereo partly shown) [SA, Sialic acid, reference compound], the “hemagglutinin aggregation (native PAGE lane)” value in [4] was “reduces hemagglutinin aggregation”.
As to `O=C(OC[C@H]1O[C@@H](OC(=O)c2cc(O)c(O)c(O)c2)[C@H](OC(=O)c2cc(O)c(O)c(O)c2)[C@@H](OC(=O)c2cc(O)c(O)c(O)c2)[C@@H]1O)c1cc(O)c(O)c(O)c1` [TGG, 1,2,3,6-Tetra-O-galloyl-beta-D-glucose], the “intra-nuclear accumulation” value in the series with influenza virus A/WSN/33 is “significantly decreased in the number of nucleoprotein-positive nucleus”. In [1], the “aggregation of viral particles” value is “significantly aggregated” and the “heights of virions (AFM)” value is reported as “significantly greater than that of DMSO-treated virions”. For the same compound, in the series on A/WSN/33 (H1N1), the EC50 was determined as 1 ± 1 nM.
As for TritonX-100 [reference compound], the “membrane structures of the virus particles (TEM)” value in [5] is on record as “destroyed membrane structures”.
